Tests used:
HAP1 MTAP-deleted = test: SDMA in-cell western assay, HAP1 MTAP-deleted cell line; format: cell-based; conditions: for IC50: Homo sapiens, HAP1 MTAP-deleted cell line; for MTAP Intact/Deleted Ratio: IC50 ratio HAP1 MTAP-intact / HAP1 MTAP-deleted
From the text: (§1) Table 1a also indicates IC50 values in an MTAP-isogenic cell line pair for exemplary compounds in an SDMA in-cell western assay (columns 7-8). HAP1 MTAP-intact is a cell line in which endogenous levels of MTAP are expressed, and HAP1 MTAP-deleted is an MTAP-null cell line.

HAP1 MTAP-intact = test: SDMA in-cell western assay, HAP1 MTAP-intact cell line; format: cell-based; conditions: Homo sapiens
From the text: as §1, with “line. […] Compounds with a ratio in the SDMA in-cell western assay of equal to or greater than 3 fold are considered MTAP-selective.” for “line.”

PRMT5 [1] = biological target: T1, PRMT5 (Homo sapiens, UniProt O14744); test: PRMT5 IC50 assay with no cofactor; format: biochemical; conditions: read-out: No Co-factor IC50
T1 construct: purchased Viva (custom protein)
T1 sequence (O14744 whole entry): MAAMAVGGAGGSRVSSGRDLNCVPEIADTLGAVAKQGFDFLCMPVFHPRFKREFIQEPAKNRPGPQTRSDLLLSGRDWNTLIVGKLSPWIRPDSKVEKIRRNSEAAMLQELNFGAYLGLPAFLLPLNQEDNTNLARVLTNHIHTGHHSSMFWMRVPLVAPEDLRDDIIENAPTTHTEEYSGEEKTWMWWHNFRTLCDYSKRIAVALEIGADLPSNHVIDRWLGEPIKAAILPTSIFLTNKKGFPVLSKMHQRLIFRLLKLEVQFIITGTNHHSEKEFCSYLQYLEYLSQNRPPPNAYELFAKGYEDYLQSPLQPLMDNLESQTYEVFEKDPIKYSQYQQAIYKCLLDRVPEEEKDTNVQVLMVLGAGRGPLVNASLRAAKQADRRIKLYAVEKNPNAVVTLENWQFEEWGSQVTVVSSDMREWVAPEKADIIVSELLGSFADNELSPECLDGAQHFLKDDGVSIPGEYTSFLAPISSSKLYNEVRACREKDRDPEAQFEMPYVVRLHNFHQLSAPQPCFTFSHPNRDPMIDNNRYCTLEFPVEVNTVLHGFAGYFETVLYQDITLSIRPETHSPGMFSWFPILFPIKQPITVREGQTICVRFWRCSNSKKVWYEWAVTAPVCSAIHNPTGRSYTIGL
T1 sequence (Q9BQA1 whole entry partner): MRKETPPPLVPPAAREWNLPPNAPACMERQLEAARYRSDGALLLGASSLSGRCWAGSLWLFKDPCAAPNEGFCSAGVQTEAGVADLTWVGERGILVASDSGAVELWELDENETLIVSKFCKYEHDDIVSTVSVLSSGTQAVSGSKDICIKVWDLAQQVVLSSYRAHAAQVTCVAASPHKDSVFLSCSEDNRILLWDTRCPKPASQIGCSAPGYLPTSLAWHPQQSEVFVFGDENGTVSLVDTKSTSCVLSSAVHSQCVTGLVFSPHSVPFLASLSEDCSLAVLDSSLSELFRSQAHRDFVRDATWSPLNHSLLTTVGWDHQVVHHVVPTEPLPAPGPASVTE
Outline: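 Enzyme: human PRMT5. Conditions: plus SAM, plus MTA, or cofactor-free. Output: IC50 (μM); Ki via IC50/1.5 (SAM) or IC50/13.5 (MTA).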

PRMT5 [2] = biological target: T1, PRMT5; test: PRMT5 IC50 assay in the presence of MTA as cofactor; format: biochemical; conditions: for IC50: PRMT5, MTA as cofactor; for SAM/MTA Ratio: ratio between Ki in the presence of SAM and Ki in the presence of MTA
Outline: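 Ki conversion: SAM arm, Ki=IC50/1.5; MTA arm, Ki=IC50/13.5. No-cofactor arm reported as IC50 only. Selectivity expressed as Ki(SAM)/Ki(MTA).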

PRMT5 [3] = biological target: T1, PRMT5; test: PRMT5 IC50 assay in the presence of SAM as cofactor; format: biochemical
Outline: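 IC50 values were measured against human PRMT5 with SAM, with MTA, or with no cofactor. Ki was derived from IC50 as Ki=IC50/1.5 with SAM and Ki=IC50/13.5 with MTA, and the Ki(SAM)/Ki(MTA) ratio was then taken.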

Row | SMILES | IC50 (HAP1 MTAP-deleted) [nM] | MTAP Intact/Deleted Ratio (HAP1 MTAP-deleted) | IC50 (HAP1 MTAP-intact) [nM] | IC50 (PRMT5 [1]) [nM] | IC50 (PRMT5 [2]) [nM] | SAM/MTA Ratio (PRMT5 [2]) | IC50 (PRMT5 [3]) [nM]
1 | CC(=O)N1CC[C@H](Nc2cc(C(=O)NC[C@H](O)CN3CCc4cc(OCc5ocnc5C)ccc4C3)ncn2)C[C@H]1C (mixture of isomers) [Compound 626, 6-{[(2RS,4SR)-1-acetyl-2-methylpiperidin-4-yl]amino}-N-[(2S)-2-hydroxy-3-{6-[(4-methyl-1,3-oxazol-5-yl)methoxy]-1,2,3,4-tetrahydroisoquinolin-2-yl}propyl]pyrimidine-4-carboxamide] | < 1000 | B* (an IC50 ratio greater than or equal to 3 fold but lower than 10 fold between the IC50 in the HAP1 MTAP-intact cell line and the HAP1 MTAP-deleted cell line) | 1000 to 10000 | 500 to 5000 | 50 to 500 | A (a Ki ratio greater than or equal to 10 fold between the Ki in the presence of SAM and the Ki in the presence of MTA) | 50 to 500
2 | CC(=O)N1CCC(Nc2cc(C(=O)NC[C@H](O)CN3CCc4cc(OCc5ocnc5C)ccc4C3)cc(N3CCCCC3)c2)CC1 (single isomer, unassigned) [Compound 631] | < 1000 | B* (an IC50 ratio greater than or equal to 3 fold but lower than 10 fold between the IC50 in the HAP1 MTAP-intact cell line and the HAP1 MTAP-deleted cell line) | 1000 to 10000 | ≥ 5000 | 50 to 500 | A (a Ki ratio greater than or equal to 10 fold between the Ki in the presence of SAM and the Ki in the presence of MTA) | 50 to 500
3 | CC(=O)N1CCC(Nc2cc(C(=O)NC[C@H](O)CN3CCc4cc(OCc5cnco5)ccc4C3)ncn2)CC1 [Compound 135, 6-[(1-acetyl-4-piperidyl)amino]-N-[(2S)-2-hydroxy-3-[6-(oxazol-5-ylmethoxy)-3,4-dihydro-1H-isoquinolin-2-yl]propyl]pyrimidine-4-carboxamide] | 1000 to 10000 | C* (an IC50 ratio of less than 3 fold between the IC50 in the HAP1 MTAP-intact cell line and the HAP1 MTAP-deleted cell line) | 1000 to 10000 | ≥ 5000 | 50 to 500 | A (a Ki ratio greater than or equal to 10 fold between the Ki in the presence of SAM and the Ki in the presence of MTA) | 50 to 500
4 | CC(=O)N1CCC(Nc2cc(C(=O)NC[C@H](O)CN3CCc4cc(OCc5ccnn5C)ccc4C3)ncn2)CC1 [Compound 140, 6-[(1-acetyl-4-piperidyl)amino]-N-[(2S)-2-hydroxy-3-[6-[(2-methylpyrazol-3-yl)methoxy]-3N-dihydro-1H-isoquinolin-2-yl]propyl]pyrimidine-4-carboxamide] | ≥ 10000 | C* (an IC50 ratio of less than 3 fold between the IC50 in the HAP1 MTAP-intact cell line and the HAP1 MTAP-deleted cell line) | ≥ 10000 | ≥ 5000 | 50 to 500 | A (a Ki ratio greater than or equal to 10 fold between the Ki in the presence of SAM and the Ki in the presence of MTA) | 500 to 5000
5 | Cc1c(OCc2cnco2)ccc2c1CCN(C[C@@H](O)CNC(=O)c1ccnc(NC3CCC3)c1)C2 [Compound 179, 2-(cyclobutylamino)-N-[(2S)-2-hydroxy-3-[5-methyl-6-(oxazol-5-ylmethoxy)-3,4-dihydro-1H-isoquinolin-2-yl]propyl]pyridine-4-carboxamide] | 1000 to 10000 | C* (an IC50 ratio of less than 3 fold between the IC50 in the HAP1 MTAP-intact cell line and the HAP1 MTAP-deleted cell line) | ≥ 10000 | ≥ 5000 | 50 to 500 | A (a Ki ratio greater than or equal to 10 fold between the Ki in the presence of SAM and the Ki in the presence of MTA) | 50 to 500
6 | O=C(NC[C@H](O)CN1CCc2c(ccc(OCc3cnco3)c2Cl)C1)c1ccnc(NC2CCC2)c1 [Compound 194, N-[(2S)-3-[5-chloro-6-(oxazol-5-ylmethoxy)-3,4-dihydro-1H-isoquinolin-2-yl]-2-hydroxy-propyl]-2-(cyclobutylamino)pyridine-4-carboxamide] | ≥ 10000 | C* (an IC50 ratio of less than 3 fold between the IC50 in the HAP1 MTAP-intact cell line and the HAP1 MTAP-deleted cell line) | ≥ 10000 | ≥ 5000 | 50 to 500 |  | 500 to 5000
7 | CC(=O)N1CCC(Nc2cc(C(=O)NC[C@H](O)CN3CCc4c(ccc(OCc5cnco5)c4C)C3)ncn2)CC1 [Compound 198, 6-[(1-acetyl-4-piperidyl)amino]-N-[(2S)-2-hydroxy-3-[5-methyl-6-(oxazol-5-ylmethoxy)-3,4-dihydro-1H-isoquinolin-2-yl]propyl]pyrimidine-4-carboxamide] | 1000 to 10000 | C* (an IC50 ratio of less than 3 fold between the IC50 in the HAP1 MTAP-intact cell line and the HAP1 MTAP-deleted cell line) | ≥ 10000 | ≥ 5000 | 50 to 500 | A (a Ki ratio greater than or equal to 10 fold between the Ki in the presence of SAM and the Ki in the presence of MTA) | 50 to 500
8 | Cc1ncoc1COc1ccc2c(c1)CCN(C[C@@H](O)CNC(=O)c1cc(NC3CCC3)nc(N3CCCCC3)n1)C2 [Compound 639, (S)-6-(cyclobutylamino)-N-(2-hydroxy-3-(6-((4-methyloxazol-5-yl)methoxy)-3,4-dihydroisoquinolin-2(1H)-yl)propyl)-2-(piperidin-1-yl)pyrimidine-4-carboxamide] |  |  | < 1000 | 500 to 5000 | 50 to 500 | A (a Ki ratio greater than or equal to 10 fold between the Ki in the presence of SAM and the Ki in the presence of MTA) | 50 to 500
9 | Cc1ncoc1COc1ccc2c(c1)CCN(C[C@@H](O)CNC(=O)c1ccnc(NC3CCN(C(=O)C(C)(C)C)CC3)c1)C2 [Compound 640, (S)—N-(2-hydroxy-3-(6-((4-methyloxazol-5-yl)methoxy)-3,4-dihydroisoquinolin-2(1H)-yl)propyl)-2-((1-pivaloylpiperidin-4-yl)amino)isonicotinamide] |  |  | 1000 to 10000 | 500 to 5000 | 50 to 500 | A (a Ki ratio greater than or equal to 10 fold between the Ki in the presence of SAM and the Ki in the presence of MTA) | 50 to 500
10 | CC(=O)N1CCC(Nc2cc(C(=O)NC[C@H](O)CN3CCc4cc(OCc5ocnc5C)ccc4C3)cc(C3CCCCC3)n2)CC1 [Compound 641, (S)-2-((1-acetylpiperidin-4-yl)amino)-6-cyclohexyl-N-(2-hydroxy-3-(6-((4-methyloxazol-5-yl)methoxy)-3,4-dihydroisoquinolin-2(1H)-yl)propyl)isonicotinamide] |  |  | < 1000 | 500 to 5000 | < 50 | A (a Ki ratio greater than or equal to 10 fold between the Ki in the presence of SAM and the Ki in the presence of MTA) | 50 to 500
11 | CC(=O)N1CCC(Nc2cc(C(=O)NC[C@H](O)CN3CCc4c(C)c(OCc5ocnc5C)cc(F)c4C3)ccn2)CC1 [Compound 642, 2-[(1-acetyl-4-piperidyl)amino]-N-[(2S)-3-[8-fluoro-5-methyl-6-[(4-methyloxazol-5-yl)methoxy]-3,4-dihydro-1H-isoquinolin-2-yl]-2-hydroxy-propyl]pyridine-4-carboxamide] |  |  | ≥ 10000 | 500 to 5000 | 50 to 500 | A (a Ki ratio greater than or equal to 10 fold between the Ki in the presence of SAM and the Ki in the presence of MTA) | 50 to 500
